The source made the active and inactive calls. No rule for the calls is given here. A value given as a limit tells only on which side of the number the result lay.

Sequence of Peptidyl-prolyl cis-trans isomerase FKBP1A (Homo sapiens) (P62942 whole entry, looked up): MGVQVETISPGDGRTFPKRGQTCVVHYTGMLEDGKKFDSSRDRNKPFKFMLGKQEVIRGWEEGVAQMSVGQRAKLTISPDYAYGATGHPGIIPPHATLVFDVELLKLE

This test concerns the target Peptidyl-prolyl cis-trans isomerase FKBP1A (Homo sapiens) (UniProt P62942). In words: FKBP12 binders, biophysical, NMR detection (AID 608). Conditions: NMR binding, purified FKBP12.
By Kd is commonly meant the constant that tells how readily two partners part at equilibrium. As for `O=C1CSC(=Nc2ccc(C(=O)O)cc2)N1`, the Kd was > 4 mM (inactive).
Turning to `O=C(c1nc2ccccc2s1)N1CCSCC1`, the Kd was > 4 mM (inactive).
Then `CN1CCn2c1nc(N1CCOCC1)nc2=O`, with > 4 mM (inactive); and `COC(=O)c1c(OC)cc2c(c1C)Oc1c(Cl)c(O)c(Cl)c(C)c1C(=O)O2`, with > 4 mM (inactive).
Then `Cn1c(=O)c2c(ncn2C)n(C)c1=O`, with > 4 mM (inactive); and `CC(=O)Nc1c(C)n(C)n(-c2ccccc2)c1=O`, with > 4 mM (inactive).
Then `CCOC(=O)CNc1ncnc2c1nnn2CC`, with > 4 mM (inactive); and `COC(=O)Nc1nc2c(C)cccc2s1`, with > 4 mM (inactive).
As for `Cc1csc2nc3ccccc3c(=O)n12`, the Kd is > 4 mM (inactive).
As for `COc1cc2c(cc1OC)[C@@H]1C(=O)c3ccc(O)c(CC=C(C)C)c3O[C@@H]1CO2`, the Kd is > 4 mM (inactive).
Next, `COc1ccccc1Nc1nncc(=O)[nH]1`: > 4 mM (inactive); `CC(=O)NCS(=O)(=O)c1ccc(C)cc1`: > 4 mM (inactive).
Then `O=C(c1ccncc1)N1CCN(C(=O)c2ccco2)CC1`, with > 4 mM (inactive).
Then `Cc1nc2nc(COc3ccccc3)nn2c(C)c1Cl`, with > 4 mM (inactive); and `OC1CSc2ncnn2C1` (centres undefined), with > 4 mM (inactive); and `OCC12COC3c4ccccc4C(OC1)N32` (centres undefined), with > 4 mM (inactive).
For the molecule `COc1cc(C(=O)O[C@H]2CC[C@@]3(C)[C@@H]4CC[C@H]5[C@]6(O)C[C@H](O)[C@@]7(O)[C@@H](CN8C[C@@H](C)CC[C@H]8[C@@]7(C)O)[C@]6(O)C[C@@]53OC24O)cc(OC)c1OC`, the Kd was > 4 mM (inactive).
In the case of `N[C@@H](C(=O)O)[C@@H](O)[C@H](O)[C@H](O)CO`, the Kd was > 4 mM (inactive).
Next, `Cc1nccn1CCC(=O)O`: > 4 mM (inactive); `COC(=O)CSc1ncnc2c(C)csc12`: > 4 mM (inactive); `O=C(NS(=O)(=O)c1ccccc1)c1ccccc1F`: > 4 mM (inactive).
Then `O=C(O)c1ccc(CSc2ncn[nH]2)cc1`, with > 4 mM (inactive).
On to `COC(=O)c1ccccc1NC(=O)c1cc[n+]([O-])cc1`, for which the Kd was > 4 mM (inactive).
Then `Cn1c(SCc2ccon2)nc2ccccc2c1=O`, with > 4 mM (inactive).
For the molecule `CC1(C)N([O-])c2cc([N+](=O)[O-])ccc2[N+]1=O`, the Kd is > 4 mM (inactive).
Then `Clc1ncc2[nH]cnc2n1`, with > 4 mM (inactive); and `CC(=O)Nc1ccc(Nc2nnc(C)c(=O)[nH]2)cc1`, with > 4 mM (inactive); and `C=C(C)C1(O)OC(=O)C=C1OC` (centres undefined), with > 4 mM (inactive).
Then `O=CN1CCN(C(=O)c2ccc(F)cc2)CC1`, with > 4 mM (inactive); and `CN(C)c1ccc(C2CC(=O)CC(=O)C2)cc1`, with > 4 mM (inactive).
Then `O=C(NC(=O)N1CCOCC1)c1ccccc1`, with > 4 mM (inactive); and `c1ccc(NCc2nc(-c3ccccc3)no2)cc1`, with > 4 mM (inactive).
Consider `COc1ccc(-c2coc3cc(O)ccc3c2=O)c(OC)c1`, for which the Kd was > 4 mM (inactive).
Next, `CC1CCN(C(=O)c2cc3ccccc3o2)CC1`: > 4 mM (inactive); `CCN1C(=O)c2c(C)nc3ccccc3c2C1=O`: > 4 mM (inactive); `CN1CN/C(=N\[N+](=O)[O-])N(c2ccccc2)C1`: > 4 mM (inactive).
As to `O=C1NCCCC1C(=O)N1CCCCC1` (centres undefined), the Kd is > 4 mM (inactive).
Then `COc1ccc(-c2cc(=O)c3c(O)c(OC)c(O[C@H]4O[C@H](CO[C@@H]5O[C@@H](C)[C@H](O)[C@@H](O)[C@H]5O)[C@@H](O)[C@H](O)[C@H]4O)cc3o2)cc1`, with > 4 mM (inactive); and `O=C(O)Cc1c[nH]c2ccccc12`, with > 4 mM (inactive).

These data come from PubChem BioAssay AID608 (Sanford-Burnham Center for Chemical Genomics, 2007).
